From patent US20240262832A1, “SMALL MOLECULE MODULATORS OF GLUCOCEREBROSIDASE ACTIVITY AND USES THEREOF” (Vanqua Bio, Inc., priority 2021, published 2024)
pEC50: −log10 of the molar value.

Molecular target: T1, GCase (Homo sapiens, UniProt P04062)
T1 construct: endogenous in cells; host or cells: HeLa cells
T1 sequence (P04062 40-536): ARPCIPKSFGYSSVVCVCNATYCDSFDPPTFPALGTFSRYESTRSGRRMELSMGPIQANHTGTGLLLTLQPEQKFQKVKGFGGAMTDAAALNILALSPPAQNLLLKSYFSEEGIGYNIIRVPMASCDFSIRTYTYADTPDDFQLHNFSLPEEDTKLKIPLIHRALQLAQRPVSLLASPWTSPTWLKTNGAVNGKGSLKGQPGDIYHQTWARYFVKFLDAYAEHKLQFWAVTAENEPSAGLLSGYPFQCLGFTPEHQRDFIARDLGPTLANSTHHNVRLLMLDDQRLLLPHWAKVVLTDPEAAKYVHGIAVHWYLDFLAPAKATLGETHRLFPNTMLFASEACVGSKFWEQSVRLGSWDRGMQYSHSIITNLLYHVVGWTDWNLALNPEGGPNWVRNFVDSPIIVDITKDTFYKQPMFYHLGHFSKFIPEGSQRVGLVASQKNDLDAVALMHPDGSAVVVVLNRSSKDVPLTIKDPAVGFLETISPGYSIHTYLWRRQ
Assay: activation of GCase in a live cell PFB assay in HELA cells
Format: cell-based

SMILES	pEC50
CCn1c(-c2nncs2)nc2ncc(N3CCCC(COc4ccccc4C)C3)nc21 (centres unmarked) [Compound 30, 2-(1-Ethyl-6-(3-((o-tolyloxy)methyl)piperidin-1-yl)-1H-imidazo[4,5-b]pyrazin-2-yl)-1,3,4-thiadiazole]	< 4.00
COc1ccc(OCC2CCN(C(=O)c3ccc(C#CC(C)(C)O)o3)CC2)cc1 [Compound 433]	4.30 to 5.00
Cn1c(-c2ccccc2)nc2nc(C(=O)N3C[C@@H]4[C@@H](COc5cccnc5C(F)(F)F)[C@@H]4C3)cnc21 [Compound 105, (1-methyl-2-phenyl-1H-imidazo[4,5-b]pyrazin-5-yl)((1R,5S,6r)-6-(((2-(trifluoromethyl)pyridin-3-yl)oxy)methyl)-3-azabicyclo[3.1.0]hexan-3-yl)methanone]	< 4.00
C[C@@H](Oc1ccccc1C(F)(F)F)[C@H]1CCCN(c2cnc3cnn(CC(F)F)c3n2)C1 [Compound 266a, 1-(2,2-Difluoroethyl)-6-((S)-3-((R)-1-(2-(trifluoromethyl)phenoxy)ethyl)piperidin-1-yl)-1H-pyrazolo[3,4-b]pyrazine]	4.30 to 5.00
CC(=O)N1CCC(c2cc3nc(C(=O)N4C[C@@H]5[C@@H](COc6cccc(C(F)(F)F)n6)[C@@H]5C4)cnc3n2C)CC1 [Compound 225, 1-(4-(5-Methyl-2-((1R,5S,6r)-6-(((6-(trifluoromethyl)pyridin-2-yl)oxy)methyl)-3-azabicyclo[3.1.0]hexane-3-carbonyl)-5H-pyrrolo[2,3-b]pyrazin-6-yl)piperidin-1-yl)ethan-1-one]	< 4.00
COc1ccc(OCC2CCN(c3cc(C4CC(N)C4)ncn3)CC2)cc1 (centres unmarked) [Compound 482]	< 4.00
Cc1cccnc1OCC1CCN(C(=O)C2(c3ccccc3)CCOCC2)CC1 [Compound 360]	4.30 to 5.00
Cc1ccccc1OCC1CCCN(C(=O)c2cnn3c(-c4ccccc4C#N)ccc(F)c23)C1 (centres unmarked) [Compound 296, 2-(4-Fluoro-3-(3-((o-tolyloxy)methyl)piperidine-1-carbonyl)pyrazolo[1,5-a]pyridin-7-yl)benzonitrile]	> 5.00
COc1ccc(OCC2CCN(CCCn3ccnc3C)CC2)cc1 [Compound 454]	< 4.00
O=C(c1cnn[nH]1)N1CCC(COc2ccc3c(c2)CCC3)CC1 [Compound 423]	4.00 to 4.30
O=C(Cc1csc(-c2ccccc2)n1)N1CCC(Oc2cccnc2C(F)(F)F)CC1 [Compound 400, 2-(2-Phenyl-1,3-thiazol-4-yl)-1-(4-{[2-(trifluoromethyl)pyridin-3-yl]oxy}piperidin-1-yl)ethan-1-one]	4.30 to 5.00
C[C@@H]1CC[C@H](COc2cncc(C(F)(F)F)c2)CN1c1cnc2cnn(CC(F)F)c2n1 [Compound 273, 1-(2,2-Difluoroethyl)-6-((2R,5S)-2-methyl-5-(((5-(trifluoromethyl)pyridin-3-yl)oxy)methyl)piperidin-1-yl)-1H-pyrazolo[3,4-b]pyrazine]	4.30 to 5.00
O=C(C1CCCCC12CC2)N1CCCC(COc2ccccc2)C1 (centres unmarked) [Compound 209]	4.30 to 5.00
O=C(c1ccc2cc[nH]c2c1)N1C[C@@H]2[C@@H](COc3cccnc3C(F)(F)F)[C@@H]2C1 [Compound 109, 6-[(1R,5S,6R)-6-({[2-(Trifluoromethyl)pyridin-3-yl]oxy}methyl)-3-azabicyclo[3.1.0]hexane-3-carbonyl]-1H-indole]	4.30 to 5.00
CC(C)c1cc(C(=O)N2C[C@@H](C)C[C@H](COc3cccnc3C(F)(F)F)C2)[nH]n1 [Compound 234b, (3-Isopropyl-1H-pyrazol-5-yl)((3S,5S)-3-methyl-5-(((2-(trifluoromethyl)pyridin-3-yl)oxy)methyl)piperidin-1-yl)methanone]	4.30 to 5.00
Cc1cc(C(=O)N2CCCC(COc3ccccc3)C2)c(C)n1C(C)C (centres unmarked) [Compound 170]	4.30 to 5.00
C[C@@H]1CC[C@H](COc2cnccc2C(F)(F)F)CN1c1cnc2cnn(CC(F)F)c2n1 [Compound 274, 1-(2,2-Difluoroethyl)-6-((2R,5S)-2-methyl-5-(((4-(trifluoromethyl)pyridin-3-yl)oxy)methyl)piperidin-1-yl)-1H-pyrazolo[3,4-b]pyrazine]	> 5.00
C[C@@H]1C[C@H](COc2cccnc2C(F)(F)F)CN(c2cnc3cnn(CC(F)F)c3n2)C1 [Compound 94, 1-(2,2-Difluoroethyl)-6-((3R,5S)-3-methyl-5-(((2-(trifluoromethyl)pyridin-3-yl)oxy)methyl)piperidin-1-yl)-1H-pyrazolo[3,4-b]pyrazine]	> 5.00
O=C(Cc1csc(-c2ccccc2)n1)N1CCC(Oc2cccc(C(F)(F)F)n2)CC1 [Compound 402, 2-(2-Phenyl-1,3-thiazol-4-yl)-1-(4-{[6-(trifluoromethyl)pyridin-2-yl]oxy}piperidin-1-yl)ethan-1-one]	4.30 to 5.00
COc1ccc(OCC2CCN(C(=O)NCCc3cn[nH]c3)CC2)cc1 [Compound 432]	4.00 to 4.30
O=C(N1CCCC(COc2ccccc2)C1)C12CC3CC(CC(C3)C1)C2 (centres unmarked) [Compound 204]	4.30 to 5.00
Cc1cccc(-c2ccccc2C(=O)N2CCCC(COc3ccccc3)C2)c1 (centres unmarked) [Compound 187]	4.30 to 5.00

SMILES	pEC50
COc1ccc(OCC2CCN(C(=O)c3cnc(O)cn3)CC2)cc1 [Compound 452]	< 4.00
O=C(c1ccc(-c2nnc[nH]2)cc1)N1CCC(OCc2ccccc2)CC1 [Compound 468]	4.00 to 4.30
CN1CCc2cc(C(=O)N3CCCC(COc4ccccc4)C3)ccc21 (centres unmarked) [Compound 181]	4.30 to 5.00
COc1ccc(OCC2CCN(Cc3ncc[nH]3)CC2)cc1 [Compound 450]	4.30 to 5.00
CC(C)(C)CC(=O)N1CCC(COc2cccc(C(F)(F)F)n2)CC1 [Compound 351]	4.30 to 5.00
Cc1ccccc1OCC1CCCN(C(=O)c2cnc3c(cc(-c4ccccc4)n3C)n2)C1 (centres unmarked) [Compound 52, (5-methyl-6-phenyl-5H-pyrrolo[2,3-b]pyrazin-2-yl)(3-((o-tolyloxy)methyl)piperidin-1-yl)methanone]	4.30 to 5.00
C[C@@H]1CC[C@H](COc2cccnc2C(F)(F)F)CN1c1cnc2cnn(CC(F)F)c2n1 [Compound 80, 1-(2,2-Difluoroethyl)-6-((2R,5S)-2-methyl-5-(((2-(trifluoromethyl)pyridin-3-yl)oxy)methyl)piperidin-1-yl)-1H-pyrazolo[3,4-b]pyrazine]	> 5.00
CC(CSC(F)(F)F)C(=O)N1CCCC(COc2ccccc2)C1 (centres unmarked) [Compound 133]	< 4.00
O=C(Cc1cc(Cl)cs1)N1CCCC(COc2ccccc2)C1 (centres unmarked) [Compound 161]	4.30 to 5.00
Cn1c(-c2ccc(F)cn2)nc2ncc(N3C[C@@H]4[C@@H](COc5cc(F)cc(F)c5)[C@@H]4C3)nc21 [Compound 286, 6-((1R,5S,6r)-6-((3,5-Difluorophenoxy)methyl)-3-azabicyclo[3.1.0]hexan-3-yl)-2-(5-fluoropyridin-2-yl)-1-methyl-1H-imidazo[4,5-b]pyrazine]	< 4.00
FC(F)Cn1ncc2ncc(N3CC4CC4(COc4cc(C(F)(F)F)ccn4)C3)nc21 (centres unmarked) [Compound 285, 3-[1-(2,2-Difluoroethyl)-1H-pyrazolo[3,4-b]pyrazin-6-yl]-1-({[4-(trifluoromethyl)pyridin-2-yl]oxy}methyl)-3-azabicyclo[3.1.0]hexane]	4.30 to 5.00
COc1ccc(OCC2CCN(c3nccnc3N(C)C)CC2)cc1 [Compound 441]	< 4.00
COc1ccc(OCC2CCN(C(=O)c3c(C)cccc3OC)CC2)cc1 [Compound 481]	4.30 to 5.00
CC(=O)N1CCC(c2cncc(N3CCCC(COc4ccccc4C(F)(F)F)C3)n2)C(C)C1 (centres unmarked) [Compound 112, 1-(3-methyl-4-(6-(3-((2-(trifluoromethyl)phenoxy)methyl)piperidin-1-yl)pyrazin-2-yl)piperidin-1-yl)ethan-1-one]	> 5.00
C[C@@H](Oc1ccccc1C(F)(F)F)[C@@H]1CCCN(c2cnc3cnn(CC(F)F)c3n2)C1 [Compound 5b, 1-(2,2-difluoroethyl)-6-((R)-3-((R)-1-(2-(trifluoromethyl)phenoxy)ethyl)piperidin-1-yl)-1H-pyrazolo[3,4-b]pyrazine]	4.30 to 5.00
COc1ccccc1OCC1CCCN(C(=O)c2c(-c3ccccc3)n(C)c3nccnc23)C1 (centres unmarked) [Compound 235, (3-((2-Methoxyphenoxy)methyl)piperidin-1-yl)(5-methyl-6-phenyl-5H-pyrrolo[2,3-b]pyrazin-7-yl)methanone]	4.30 to 5.00
COC1(C(=O)N2CCCC(COc3ccccc3)C2)CCCCCCC1 (centres unmarked) [Compound 176]	4.30 to 5.00
O=C(N1CCCC(COc2ccccc2)C1)C12CCC(C(F)F)(CC1)C2 (centres unmarked) [Compound 10]	4.30 to 5.00
FC(F)Cn1ncc2ncc(N3C[C@@H]4[C@@H](COc5cccc(C(F)(F)F)n5)[C@@H]4C3)nc21 [Compound 36, (1R,5S,6S)-3-[1-(2,2-Difluoroethyl)-1H-pyrazolo[3,4-b]pyrazin-6-yl]-6-({[6-(trifluoromethyl)pyridin-2-yl]oxy}methyl)-3-azabicyclo[3.1.0]hexane]	4.30 to 5.00
O=C(C1CC1)N1CCC(c2cncc(N3CCCC(COc4ccccc4C(F)(F)F)C3)n2)CC1 (centres unmarked) [Compound 113, Cyclopropyl(4-(6-(3-((2-(trifluoromethyl)phenoxy)methyl)piperidin-1-yl)pyrazin-2-yl)piperidin-1-yl)methanone]	> 5.00
COc1ccc(OCC2CCN(Cc3cnc(C)[nH]3)CC2)cc1 [Compound 444]	< 4.00
COc1ccc(OCC2CCN(C(=O)CC3CCOC3)CC2)cc1 (centres unmarked) [Compound 472]	4.00 to 4.30
